Data on 21 compounds can be found in ChEMBL document CHEMBL3867445, “Halogenated Sesquiterpenoids from the Red Alga Laurencia tristicha Collected in Taiwan” (J Nat Prod, 2016).

The term IC50 denotes the concentration at which inhibition is half-maximal. As usually defined, the inhibition is the drop in the measured response relative to a control, in per cent.

Assay [1] can be described thus: Cytotoxicity against human LNCAP cells by Alamar Blue assay. Format: functional, cell-based. (In general: The colour change of resazurin is a common sign of viable cells or microbes.)
Assay [2] in a line: Antiinflammatory activity in human neutrophils assessed as inhibition of fMLP/CB-induced superoxide anion generation by measuring superoxide dismutase-inhibitable reduction of ferricytochrome c at 10 uM preincubated for 5 mins followed by fMLP/CB-induction measured after 10 mins. Format: functional. The settings on record: Neutrophil.
The nature of assay [3]: Antiinflammatory activity in human neutrophils assessed as inhibition of fMLP/CB-induced elastase release at 10 uM using MeO-Suc-Ala-Ala-Pro-Val-p-nitroanilide as elastase substrate preincubated for 5 mins followed by fMLP/CB-induction. As to conditions: Neutrophil. Format: functional.
Assay [4] can be described thus: Antiinflammatory activity in human neutrophils assessed as inhibition of fMLP/CB-induced superoxide anion generation by measuring superoxide dismutase-inhibitable reduction of ferricytochrome c at 20 uM preincubated for 5 mins followed by fMLP/CB-induction measured after 10 mins. Format: functional. As to conditions: Neutrophil.
The nature of assay [5]: Cytotoxicity against human A549 cells by Alamar Blue assay.
Assay [6] is described as follows: Cytotoxicity against human DLD1 cells by Alamar Blue assay. Format: functional, cell-based. The settings on record: DLD-1.
Assay [7] is described as follows: Antiinflammatory activity in human neutrophils assessed as inhibition of fMLP/CB-induced elastase release at 20 uM using MeO-Suc-Ala-Ala-Pro-Val-p-nitroanilide as elastase substrate preincubated for 5 mins followed by fMLP/CB-induction. Format: functional. As to conditions: Neutrophil.
Another assay concerns Serratia marcescens. The assay is described as follows: Antibacterial activity against Serratia marcescens ATCC 25419 assessed as zone of inhibition at 100 ug/disk measured after 24 hrs by agar disk-diffusion method. Format: functional. The settings on record: ATCC 25419, 24 h, read-out: IZ.
For a further assay, the system named is Yersinia enterocolitica. Briefly: Antibacterial activity against Yersinia enterocolitica ATCC 23715 assessed as zone of inhibition at 100 ug/disk measured after 24 hrs by agar disk-diffusion method. Format: functional. The settings on record: ATCC 23715, 24 h, read-out: IZ. In general terms: In agar diffusion tests the substance spreads into inoculated agar from a disc or well.

In a further assay the test system is Klebsiella aerogenes. The assay is described as follows: Antibacterial activity against Enterobacter aerogenes ATCC 13048 assessed as zone of inhibition at 100 ug/disk measured after 24 hrs by agar disk-diffusion method. Format: functional. The settings on record: ATCC 13048, 24 h, read-out: IZ.

For `C=C1C[C@@H](O)[C@@H](Br)C(C)(C)[C@@]12C=C/C(=C/Br)CC2`, the concentration for half-maximal inhibition (IC50) in [1], in assay [5] and in [6] was not below 10 µM each time. For the same compound, the inhibition at 10 µM in assay [2] amounted to 18%; in assay [3], 34%. In addition, the inhibition at 20 µM in assay [4] came out at 10%; in assay [7], 69%.
Take `C=C1C[C@@H](O)[C@@H](Br)C(C)(C)[C@@]12C=C[C@](O)(CO)CC2`: the half-inhibitory concentration (IC50) in assay [1], in assay [5] and in [6] was not below 10 µM each time. For the same compound, the inhibition at 10 µM in assay [2] amounted to 7%; in [3], 9%. Also, the inhibition at 20 µM in [4] came out at 14%; in assay [7], 29%.
Regarding `C=C1C[C@@H](O)[C@@H](Br)C(C)(C)[C@]12CCC(=O)[C@H]1O[C@H]12`, the half-maximal inhibitory concentration (IC50) in assay [1], in assay [5] and in assay [6] was not below 10 µM in each case. Moreover, the figures for the inhibition at 10 µM in assay [2] and in assay [3] were 6% and 3%, respectively. Also, the values for the inhibition at 20 µM in assay [4] and in [7] were 6% and 14%, respectively.
As for `CC1=CC(=O)CC(C)(C)[C@@]12C=C/C(=C\Br)CC2`, the zone of inhibition at 100 µg/disc in the assay on Serratia marcescens was 8 mm. For the same compound, the 50% inhibitory concentration (IC50) in assay [1], in assay [5] and in [6] was not below 10 µM throughout. The inhibition at 10 µM came to 6% in assay [2] and 3% in [3]. The inhibition at 20 µM in [4] came out at 12%; in [7] it was 14%.
As to `C=C1C[C@@H](O)[C@@H](Br)C(C)(C)[C@@]12C=C[C@](O)(C(Br)Br)CC2`, the zone of inhibition at 100 µg/disc with Serratia marcescens amounted to 2 mm; in the assay with Yersinia enterocolitica it was 4 mm. Moreover, the half-inhibitory concentration (IC50) in assay [1], in [5] and in assay [6] was not below 10 µM each time. Also, the inhibition at 10 µM in assay [2] is 19%; in assay [3] it was 9%. Also, the inhibition at 20 µM in [4] was determined as 32%; in assay [7], 33%.
Take `C=C1CC[C@]2(C[C@@H]1O)C(=C)C[C@H](O)[C@@H](Br)C2(C)C`: the 50% inhibitory concentration (IC50) in assay [1], in assay [5] and in assay [6] was not below 10 µM in each case. Further, the figures for the inhibition at 10 µM in [2] and in assay [3] were 10% and 5%, respectively. Moreover, the values for the inhibition at 20 µM in assay [4] and in assay [7] were 14% and 24%, respectively.
Consider `Cc1ccc([C@]2(C)C[C@H](O)[C@@H](Br)C2(C)C)cc1`, for which the concentration for half-maximal inhibition (IC50) in assay [1], in [5] and in [6] was not below 10 µM in each case. In addition, the inhibition at 10 µM in [2] amounted to 17%; in assay [3], 7%. In addition, the inhibition at 20 µM in assay [4] came out at 26%; in assay [7] it was 28%.
With `CC1=CC(=O)CC(C)(C)[C@@]12C=C/C(=C/Br)CC2`, the IC50 in assay [1], in assay [5] and in assay [6] was not below 10 µM in each case. In addition, the results for the inhibition at 10 µM in assay [2] and in assay [3] were 7% and 5%, respectively. Besides, the values for the inhibition at 20 µM in [4] and in assay [7] were 10% and 30%, respectively.
For `CC1=C[C@H](O)[C@@H](Br)C(C)(C)[C@@]12C=C[C@](C)(O)CC2`, the 50% inhibitory concentration (IC50) in assay [1], in assay [5] and in assay [6] was not below 10 µM in each case. Moreover, the inhibition at 10 µM in assay [2] amounted to 13%; in assay [3], 1%. For the same compound, the inhibition at 20 µM in assay [4] and in [7] was 12% throughout.
Consider `C=C1C[C@@H](O)[C@@H](Br)C(C)(C)[C@]12CC[C@](C)(Br)[C@@H](Cl)C2`, for which the zone of inhibition at 100 µg/disc with Serratia marcescens, in the assay with Klebsiella aerogenes and in the assay on Yersinia enterocolitica was 2 mm each time. For the same compound, the IC50 in [1], in assay [5] and in assay [6] was not below 10 µM each time. Besides, the inhibition at 10 µM in [2] stood at 25%; in [3], 44%. Further, the inhibition at 20 µM in assay [4] was determined as 48%; in assay [7], 60%.
In the case of `CO[C@@]1(C)CC[C@]2(C[C@H]1Br)C(C)=C[C@H](O)CC2(C)C`, the half-maximal inhibitory concentration (IC50) in assay [1], in assay [5] and in [6] was not below 10 µM in each case. The inhibition at 10 µM in [2] is 12%; in assay [3] it was 5%. The inhibition at 20 µM in assay [4] was found to be 10%; in [7], 24%.
For the compound `CC1=C[C@H](O)CC(C)(C)[C@]12CC[C@](C)(Br)[C@H](Cl)C2`, the IC50 in [1], in assay [5] and in assay [6] was not below 10 µM throughout. Also, the inhibition at 10 µM in assay [2] and in assay [3] was 12% each time. In addition, the values for the inhibition at 20 µM in assay [4] and in assay [7] were 14% and 19%, respectively.
Turning to `CC1(C)[C@H](Br)[C@H](O)C[C@@]2(CO2)[C@@]12CCC(=O)[C@@H]1O[C@@H]12`, the IC50 in assay [1], in [5] and in assay [6] was not below 10 µM throughout. Further, the inhibition at 10 µM in [2] was determined as 9%; in assay [3], 2%. For the same compound, the inhibition at 20 µM came out at 8% in assay [4] and 18% in [7].
For `C=C1C[C@@H](O)[C@@H](Br)C(C)(C)[C@@]12C=CC(=O)CC2`, the 50% inhibitory concentration (IC50) in assay [1], in assay [5] and in assay [6] was not below 10 µM in each case. Moreover, the inhibition at 10 µM in assay [2] worked out at 7%; in assay [3], 9%. For the same compound, the zone of inhibition at 100 µg/disc with Klebsiella aerogenes worked out at 3 mm. Also, the inhibition at 20 µM in [4] worked out at 13%; in assay [7], 14%.
As for `C=C1C[C@@H](O)[C@@H](Br)C(C)(C)[C@@]12C=C/C(=C\Br)CC2`, the zone of inhibition at 100 µg/disc with Serratia marcescens is 4 mm; in the assay on Yersinia enterocolitica, 3 mm. Besides, the 50% inhibitory concentration (IC50) in assay [1], in assay [5] and in assay [6] was not below 10 µM throughout. The values for the inhibition at 10 µM in [2] and in [3] were 24% and 8%, respectively. The inhibition at 20 µM in [4] worked out at 10%; in assay [7], 12%.
Consider `CC1=CC(=O)CC(C)(C)[C@@]12C=CC(=O)CC2`, for which the IC50 in [1], in assay [5] and in [6] was not below 10 µM throughout. The inhibition at 10 µM in assay [2] came out at 4%; in [3], 18%. Further, the inhibition at 20 µM is 16% in assay [4] and 32% in [7].
As for `CC1(C)S[C@@H]2[C@H](NC(=O)[C@H](N)c3ccccc3)C(=O)N2[C@H]1C(=O)O` [AMPICILLIN], the zone of inhibition at 100 µg/disc with Serratia marcescens came out at 5 mm; in the assay with Klebsiella aerogenes, 11 mm; with Yersinia enterocolitica, 8 mm.
For `COc1cccc2c1C(=O)c1c(O)c3c(c(O)c1C2=O)C[C@@](O)(C(=O)CO)C[C@@H]3O[C@H]1C[C@H](N)[C@H](O)[C@H](C)O1` [DOXORUBICIN], the results for the half-inhibitory concentration (IC50) in [1] and in assay [6] were 1.4 µM and 2.6 µM, respectively.
With `CC[C@H](Nc1ncnc2[nH]cnc12)c1nc2cccc(F)c2c(=O)n1-c1ccccc1` [IDELALISIB], the inhibition at 10 µM in [2] was 103%; in [3], 100%.
On to `C=C1C[C@H](O)[C@@H](Br)C(C)(C)[C@@]12C=C[C@](C)(O)CC2` [ISORIGIDOL], for which the 50% inhibitory concentration (IC50) in [1], in assay [5] and in assay [6] was not below 10 µM each time. The inhibition at 10 µM in [2] is 11%; in assay [3], 9%. Also, the inhibition at 20 µM in assay [4] is 23%; in assay [7] it was 12%.
For `C=C1C[C@@H](O)[C@@H](Br)C(C)(C)[C@@]12C=C[C@@](O)(C(Br)Br)CC2` [MAILIOHYDRIN], the zone of inhibition at 100 µg/disc with Serratia marcescens was 2 mm; in the assay on Klebsiella aerogenes it was 1 mm; with Yersinia enterocolitica, 2 mm. Moreover, the IC50 in assay [1], in [5] and in assay [6] was not below 10 µM throughout. Besides, the inhibition at 10 µM in assay [2] was determined as 13%; in [3] it was 16%. For the same compound, the figures for the inhibition at 20 µM in assay [4] and in assay [7] were 16% and 22%, respectively.
